Assay results from US8753833B2, “Copolymer assay” (Momenta Pharmaceuticals, Inc., priority 2007, dated 2014).
Marks after values point to notes of the source that are not given here.

Key:
THP-1 cells [1] = assay: THP-1 copolymer assay: secretion of IFN-γ-regulated chemokines, cytokines, receptors and proteases, Searchlight multiplex analysis; type: cell-based, human; conditions: for I-TAC / IP-10 / MIG: IFN-γ 10 ng/ml, 22-24 hours, 12 samples
Protocol: THP-1 cells (ATCC, TIB-202) were received from the American Type Culture Collection (ATCC). […] Cells were grown in complete growth medium and incubated in a 37° C., 5% CO2 incubator.
Assay medium was prepared fresh the day of the assay. The assay medium consisted of 2 mM Glutamax I Supplement (Invitrogen, 35050-79) in X-VIVO 15 serum-free medium (Cambrex, 04-418Q). These reagents were filtered in a 0.2 micron cellulose acetate filter unit (Nalgene, 156-4020). After filtration, the bottle was covered with foil to protect the medium from light.
COPAXONE® (glatiramer acetate; Teva Pharmaceuticals) was stored in the manufacturer's syringe at 4° C. Samples were prepared at a 2× concentration in the 2×IFN-γ assay medium in sterile, siliconized microfuge tubes. Final concentrations from 0 μg/ml to 400 μg/ml were tested in the assay.
Human IFN-γ (R&D Systems, 285-IF-100) was reconstituted with sterile 0.2% bovine serum albumin (BSA) in phosphate-buffered saline (PBS) (Chemicon, 3225-80).
On the day prior to assay, THP-1 cells were seeded at 2×10^5 cells/ml (20 ml final volume). These cells were harvested by centrifugation at 400×g, 5 min, 18° C. Cells were washed once with assay medium (without IFN-γ) and resuspended in assay medium (without IFN-γ) and counted. THP-1 cells were resuspended at 5×10^5 cells/ml in assay medium (with 0, 1, 10, and 100 ng/ml final concentration of IFN-γ). […] Assay plates were incubated for 0 to 23 hours in a 37° C., 5% CO2 incubator.
Conditioned medium was harvested into non-sterile, siliconized tubes. Tubes were centrifuged at 400×g, 5 min, 4° C. The supernatants were transferred to new, siliconized tubes and flash frozen in liquid nitrogen. Frozen conditioned medium was stored at −80° C. until they were submitted for Searchlight multiplex cytokine analysis (Pierce Endogen, Woburn, Mass.).

THP-1 cells [2] = assay: as above; type: cell-based, human; conditions: IFN-γ 10 ng/ml, 22-24 hours, 12 samples
[3] = 50 μg/ml COPAXONE and 10 ng/ml IFN-γ, FIG. 1
[4] = 23 hours, GA 2 μg/ml, IFNγ 0 ng/ml
[5] = 23 hours, GA 2 μg/ml, IFNγ 10 ng/ml
[6] = 23 hours, GA 2 μg/ml, IFNγ 100 ng/ml
[7] = 23 hours, GA 2 μg/ml, IFNγ 1000 ng/ml
[8] = 23 hours, GA 10 μg/ml, IFNγ 0 ng/ml
[9] = 23 hours, GA 10 μg/ml, IFNγ 10 ng/ml
[10] = 23 hours, GA 10 μg/ml, IFNγ 100 ng/ml
[11] = 23 hours, GA 10 μg/ml, IFNγ 1000 ng/ml
[12] = IFNγ + 50 μg/ml I356 over IFNγ alone (10 ng/ml)

Fold induction over baseline by culture medium (THP-1 cells [1]; X-VIVO15 serum-free defined medium compared with FBS media): highest fold induction over baseline
Substance: glatiramer acetate [COPAXONE®]
I-TAC level, fold higher than baseline containing IFN-γ alone (THP-1 cells [1]; [3]): 412 fold
IP-10 level, fold higher than baseline containing IFN-γ alone (THP-1 cells [1]; [3]): 329 fold
MIG level, fold higher than baseline containing IFN-γ alone (THP-1 cells [1]; [3]): 573 fold
I-TAC induction, fold increase over the control (0) (THP-1 cells [1]; [4]): 1 fold
IP-10 induction, fold increase over the control (0) (THP-1 cells [1]; [4]): 0 fold
MIG induction, fold increase over the control (0) (THP-1 cells [1]; [4]): 1 fold
I-TAC induction, fold increase over the control (0) (THP-1 cells [1]; [5]): 10 fold
IP-10 induction, fold increase over the control (0) (THP-1 cells [1]; [5]): 72 fold
MIG induction, fold increase over the control (0) (THP-1 cells [1]; [5]): 21 fold
I-TAC induction, fold increase over the control (0) (THP-1 cells [1]; [6]): 46 fold
IP-10 induction, fold increase over the control (0) (THP-1 cells [1]; [6]): 49 fold
MIG induction, fold increase over the control (0) (THP-1 cells [1]; [6]): 39 fold
I-TAC induction, fold increase over the control (0) (THP-1 cells [1]; [7]): 23 fold
IP-10 induction, fold increase over the control (0) (THP-1 cells [1]; [7]): 13 fold
MIG induction, fold increase over the control (0) (THP-1 cells [1]; [7]): 23 fold
I-TAC induction, fold increase over the control (0) (THP-1 cells [1]; [8]): 4 fold
IP-10 induction, fold increase over the control (0) (THP-1 cells [1]; [8]): 0 fold
MIG induction, fold increase over the control (0) (THP-1 cells [1]; [8]): 1 fold
I-TAC induction, fold increase over the control (0) (THP-1 cells [1]; [9]): 51 fold
IP-10 induction, fold increase over the control (0) (THP-1 cells [1]; [9]): 233 fold
MIG induction, fold increase over the control (0) (THP-1 cells [1]; [9]): 284 fold
I-TAC induction, fold increase over the control (0) (THP-1 cells [1]; [10]): 113 fold
IP-10 induction, fold increase over the control (0) (THP-1 cells [1]; [10]): 67 fold
MIG induction, fold increase over the control (0) (THP-1 cells [1]; [10]): 333 fold
I-TAC induction, fold increase over the control (0) (THP-1 cells [1]; [11]): 49 fold
IP-10 induction, fold increase over the control (0) (THP-1 cells [1]; [11]): 14 fold
MIG induction, fold increase over the control (0) (THP-1 cells [1]; [11]): 160 fold
IFN-γ concentration at which fold-induction over baseline is maximal (THP-1 cells [1]; 23 hours, IP-10, I-TAC, MIG): 1 to 10 ng/mL
IP-10 production in the absence of IFN-γ (THP-1 cells [1]; COPAXONE alone, no IFN-γ): do not produce any significant amount
Earliest time at which lower levels of IP-10, I-TAC and MIG can be detected (THP-1 cells [1]; COPAXONE and the higher IFN-γ concentrations): 3 to 6 h
Effect on secretion of IP-10, I-TAC and MIG (THP-1 cells [1]; COPAXONE in combination with IFN-γ): striking, concentration-dependent effect
I309 secretion (THP-1 cells [1]; IFNγ 10 ng/ml + 50 μg/ml I356): 15.6* pg/ml
ICAM1 secretion (THP-1 cells [1]; IFNγ 10 ng/ml + 50 μg/ml I356): 279.9* pg/ml
IL1β secretion (THP-1 cells [1]; IFNγ 10 ng/ml + 50 μg/ml I356): 0.5* pg/ml
IL12p70 secretion (THP-1 cells [1]; IFNγ 10 ng/ml + 50 μg/ml I356): 8.9* pg/ml
IL-6 secretion (THP-1 cells [1]; IFNγ 10 ng/ml + 50 μg/ml I356): 3.8* pg/ml
IL-8 secretion (THP-1 cells [1]; IFNγ 10 ng/ml + 50 μg/ml I356): 217.1* pg/ml
IL-10 secretion (THP-1 cells [1]; IFNγ 10 ng/ml + 50 μg/ml I356): 0.7* pg/ml
IP10 secretion (THP-1 cells [1]; IFNγ 10 ng/ml + 50 μg/ml I356): 4060.5* pg/ml
MCP1 secretion (THP-1 cells [1]; IFNγ 10 ng/ml + 50 μg/ml I356): 688.2* pg/ml
MDC secretion (THP-1 cells [1]; IFNγ 10 ng/ml + 50 μg/ml I356): 23.6* pg/ml
MIP1α secretion (THP-1 cells [1]; IFNγ 10 ng/ml + 50 μg/ml I356): 73.9* pg/ml
MMP2 secretion (THP-1 cells [1]; IFNγ 10 ng/ml + 50 μg/ml I356): 915.9* pg/ml
MMP9 secretion (THP-1 cells [1]; IFNγ 10 ng/ml + 50 μg/ml I356): 8.9* pg/ml
RANTES secretion (THP-1 cells [1]; IFNγ 10 ng/ml + 50 μg/ml I356): 352.2* pg/ml
TARC secretion (THP-1 cells [1]; IFNγ 10 ng/ml + 50 μg/ml I356): 35.2* pg/ml
TIMP1 secretion (THP-1 cells [1]; IFNγ 10 ng/ml + 50 μg/ml I356): 6364.3* pg/ml
TNFR1 secretion (THP-1 cells [1]; IFNγ 10 ng/ml + 50 μg/ml I356): 35.8* pg/ml
TNFR2 secretion (THP-1 cells [1]; IFNγ 10 ng/ml + 50 μg/ml I356): 34.4* pg/ml
TNFα secretion (THP-1 cells [1]; IFNγ 10 ng/ml + 50 μg/ml I356): 61.3* pg/ml
IFNγ level in culture medium (THP-1 cells [1]; IFNγ 10 ng/ml + 50 μg/ml I356, 24 hr): 4575.9* pg/ml
I309 Fold-increase (THP-1 cells [1]; [12]): 9.7 fold
ICAM1 Fold-increase (THP-1 cells [1]; [12]): 6.0 fold
IFNγ Fold-increase (THP-1 cells [1]; [12]): 9.7 fold
IL1β Fold-increase (THP-1 cells [1]; [12]): 2.4 fold
IL12p70 Fold-increase (THP-1 cells [1]; [12]): 1.9 fold
IL-6 Fold-increase (THP-1 cells [1]; [12]): 19.0 fold
IL-8 Fold-increase (THP-1 cells [1]; [12]): 8.5 fold
IL-10 Fold-increase (THP-1 cells [1]; [12]): 2.0 fold
IP10 Fold-increase (THP-1 cells [1]; [12]): 226.3 fold
MCP1 Fold-increase (THP-1 cells [1]; [12]): 21.3 fold
MDC Fold-increase (THP-1 cells [1]; [12]): 10.6 fold
MIP1α Fold-increase (THP-1 cells [1]; [12]): 7.1 fold
MMP2 Fold-increase (THP-1 cells [1]; [12]): 5.8 fold
MMP9 Fold-increase (THP-1 cells [1]; [12]): 0.2 fold
RANTES Fold-increase (THP-1 cells [1]; [12]): 3.6 fold
TARC Fold-increase (THP-1 cells [1]; [12]): 3.0 fold
TIMP1 Fold-increase (THP-1 cells [1]; [12]): 1.7 fold
TNFR1 Fold-increase (THP-1 cells [1]; [12]): 5.2 fold
TNFR2 Fold-increase (THP-1 cells [1]; [12]): 3.1 fold
TNFα Fold-increase (THP-1 cells [1]; [12]): 1.8 fold
I-TAC (THP-1 cells [1]; [GA] 0.78 μg/ml): 16.5 pg/mL
IP-10 (THP-1 cells [1]; [GA] 0.78 μg/ml): 259.2 pg/mL
I-TAC (THP-1 cells [1]; [GA] 1.56 μg/ml): 42.1 pg/mL
IP-10 (THP-1 cells [1]; [GA] 1.56 μg/ml): 483.7 pg/mL
I-TAC (THP-1 cells [1]; [GA] 3.13 μg/ml): 82.6 pg/mL
IP-10 (THP-1 cells [1]; [GA] 3.13 μg/ml): 580.8 pg/mL
I-TAC (THP-1 cells [1]; [GA] 6.25 μg/ml): 105.9 pg/mL
IP-10 (THP-1 cells [1]; [GA] 6.25 μg/ml): 581.4 pg/mL
MIG (THP-1 cells [1]; [GA] 6.25 μg/ml): 2704.5 pg/mL
I-TAC (THP-1 cells [1]; [GA] 12.5 μg/ml): 179.2 pg/mL
MIG (THP-1 cells [1]; [GA] 12.5 μg/ml): 3608 pg/mL
IP-10 (THP-1 cells [1]; [GA] 25 μg/ml): 829 pg/mL
MIG (THP-1 cells [1]; [GA] 25 μg/ml): 4480.6 pg/mL
I-TAC (THP-1 cells [1]; [GA] 50 μg/ml): 532.6 pg/mL
IP-10 (THP-1 cells [1]; [GA] 50 μg/ml): 2150.8 pg/mL
MIG (THP-1 cells [1]; [GA] 50 μg/ml): 13771.2 pg/mL
I-TAC (THP-1 cells [1]; [GA] 100 μg/ml): 2444 pg/mL
IP-10 (THP-1 cells [1]; [GA] 100 μg/ml): 12865.1 pg/mL
MIG (THP-1 cells [1]; [GA] 100 μg/ml): 45353.3 pg/mL
I-TAC (THP-1 cells [1]; [GA] 200 μg/ml): 2091.2 pg/mL
MIG (THP-1 cells [1]; [GA] 200 μg/ml): 37897.5 pg/mL
I-TAC (THP-1 cells [1]; [GA] 400 μg/ml): 1560.5 pg/mL
IP-10 (THP-1 cells [1]; [GA] 400 μg/ml): 6111.3 pg/mL
IFN-γ levels with COPAXONE treatment (THP-1 cells [1]; measured at 24 hours): concentration-dependent increase
Secretion of IP-10, MIG, I-TAC and IFN-γ in all medium conditions (THP-1 cells [1]; various concentrations of FBS or X-VIVO15 serum-free medium): robust secretion
MIG (THP-1 cells [2]; [GA] 0.78 μg/ml): 149.7 pg/mL
MIG (THP-1 cells [2]; [GA] 1.56 μg/ml): 345.6 pg/mL
MIG (THP-1 cells [2]; [GA] 3.13 μg/ml): 933.6 pg/mL
IP-10 (THP-1 cells [2]; [GA] 12.5 μg/ml): 782.6 pg/mL
I-TAC (THP-1 cells [2]; [GA] 25 μg/ml): 247.1 pg/mL
IP-10 (THP-1 cells [2]; [GA] 200 μg/ml): 10899 pg/mL
MIG (THP-1 cells [2]; [GA] 400 μg/ml): 27574.5 pg/mL
